Read-outs that look alike come from different tables or passages of the source.
Columns and labels:
[1] = system: patients with inoperable, locally advanced, or metastatic RCC; conditions: Rini et al. Lancet 2019, cited from earlier work; for Median OS: clinical cutoff Aug. 13, 2018; for Confirmed INV-assessed ORR / Median INV-assessed PFS: clinical cutoff Sep. 29, 2017
[2] = system: patients with metastatic RCC with sarcomatoid histology; experiment: IMmotion151 subgroup analysis: efficacy in patients whose tumors had sarcomatoid histology; format: in vivo, human; conditions: for Median OS: clinical cutoff Aug. 13, 2018; for Confirmed INV-assessed ORR / Median INV-assessed PFS: clinical cutoff Sep. 29, 2017
Excerpt: Sarcomatoid renal carcinoma was defined as any histologic type of renal cell carcinoma containing a focus/foci of high-grade malignant spindle cells of any component relative to the entire tumor area. Such a classification required evidence of epithelial differentiation with concurrent areas of renal cell carcinoma or evidence of epithelial differentiation in the spindle cells with immunohistochemical positivity for keratin or epithelial membrane antigen (EMA). Frequent patterns include fibrosarcoma, malignant fibrous histiocytoma, and rhabdomyosarcoma. Focal spindling due to noncohesion of tumor cells was not considered to represent sarcomatoid differentiation. Any spindle component relative to the entire tumor area was sufficient. The degree of sarcomatoid differentiation was recorded as 1) any component, 2) >20% component, or 3) predominant sarcomatoid component.
IMmotion151 is a multicenter, randomized, open-label, Phase III study evaluating the efficacy and safety of atezolizumab+bevacizumab vs those of sunitinib in patients with previously untreated, inoperable, locally advanced or metastatic RCC (FIG. 1). The co-primary endpoints were (i) investigator (INV)-assessed progression-free survival (PFS) in patients with ≥1% IC expressing PD-L1 (PD-L1+) and (ii) interim overall survival (OS) in the intent-to-treat (ITT) population. Secondary endpoints inclue INV-assessed PFS and OS in patients with sarcomatoid histology and are reported here with INV-assessed objective response rate (ORR), safety, patient-reported outcomes (PROs) of symptoms and function and biomarker evaluation.
Patients were included in this subgroup analysis if their tumor had any component of sarcomatoid histology, referred to in this presentation as “All Sarc,” as reported by the investigator per the local pathology report. P values are for descriptive purposes only. Gene expression analyses of baseline tumor samples were performed as previously described and focused on T-effector and angiogenesis signatures (see, e.g., McDermott et al. Nat. Med. 24:749-757, 2018). The clinical cutoff for PFS, ORR, PRO and safety was Sep. 29, 2017, with a median follow-up of 13 months. The clinical cutoff for OS was Aug. 13, 2018, with a median follow-up of 17 months.

[3] = system: patients with inoperable, locally advanced, or metastatic RCC; experiment: IMmotion151 Phase III study: efficacy of atezolizumab plus bevacizumab versus sunitinib (ITT and PD-L1+ populations); format: in vivo, human; conditions: investigator-assessed
Excerpt: The IMmotion151 study (ClinicalTrials.gov Identifier NCT02420821) is a multi-center, randomized, open-label study to evaluate the efficacy and safety of atezolizumab plus bevacizumab versus sunitinib in patients with inoperable, locally advanced, or metastatic RCC who have not received prior systemic active or experimental therapy in either the adjuvant or metastatic setting. The co-primary endpoints of the study were PFS in the PD-L1^+ subgroup, and OS in the ITT population. The exploratory endpoints included biomarker characterization in sarcomatoid tumors and MSKCC risk subgroups, as well as validation of gene signatures from the IMmotion150 study and their association with PFS. […]
IMmotion151 is a multicenter, randomized, open-label, Phase III study evaluating the efficacy and safety of atezolizumab+bevacizumab vs those of sunitinib in patients with previously untreated, inoperable, locally advanced or metastatic RCC (FIG. 1). The co-primary endpoints were (i) investigator (INV)-assessed progression-free survival (PFS) in patients with ≥1% IC expressing PD-L1 (PD-L1+) and (ii) interim overall survival (OS) in the intent-to-treat (ITT) population. […]

[4] = patients with >20% sarcomatoid component

CCN(CC)CCNC(=O)c1c(C)[nH]c(/C=C2\C(=O)Nc3ccc(F)cc32)c1C [Sunitinib, N-[2-(Diethylamino)ethyl]-5-[(Z)-(5-fluoro-2-oxo-1,2-dihydro-3H-indol-3-ylidene)methyl]-2,4-dimethyl-1H-pyrrole-3-carboxamide]
CR ([1]; ITT): 2% | Ongoing responses ([1]; ITT): 90 n | Median OS ([1]; ITT): 34.9 mo | Confirmed INV-assessed ORR ([1]; ITT): 33% | Median INV-assessed PFS ([1]; ITT): 8.4 mo | CR ([1]; PD-L1 + ITT): 4% | Ongoing responses ([1]; PD-L1 + ITT): 34 n | Median OS ([1]; PD-L1 + ITT): 32.7 mo | Confirmed INV-assessed ORR ([1]; PD-L1 + ITT): 35% | Median INV-assessed PFS ([1]; PD-L1 + ITT): 7.7 mo | CR ([2]; All Sarc): 3% | Ongoing responses ([2]; All Sarc): 3 n | Median OS ([2]; All Sarc): 15.4 mo | Confirmed INV-assessed ORR ([2]; All Sarc): 14% | Median INV-assessed PFS ([2]; All Sarc): 5.3 mo | CR ([2]; PD-Li + Sarc): 4% | Ongoing responses ([2]; PD-Li + Sarc): 0 n | Median OS ([2]; PD-Li + Sarc): 15.0 mo | Confirmed INV-assessed ORR ([2]; PD-Li + Sarc): 12% | Median INV-assessed PFS ([2]; PD-Li + Sarc): 5.6 mo | CR rate [2, 4]: 0% | ORR [2, 4]: 4% | overall response rate (ORR) ([2]; patients with sarcomatoid differentiation (Example 1)): 18% | median PFS ([3]; ITT population): 8.4 months | median PFS ([3]; PD-L1+ patients): 7.7 months

From patent US20210253710A1, “DIAGNOSTIC AND THERAPEUTIC METHODS FOR KIDNEY CANCER” (Genentech, Inc., priority 2018, published 2021)
